Reference: US20260007681A1, “INDOLE DERIVATIVES AS ESTROGEN RECEPTOR DEGRADERS” (REGENTS OF THE UNIVERSITY OF MICHIGAN, priority 2022, published 2026)

Target: ER (Homo sapiens (Human), UniProt P03372)
Assay: Western blot analysis (Compounds B1-B278)
Format: cell-based
Conditions: ER degradation by traditional Western blot; DC50 classes
How it was run: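 Relative target-protein levels come from densitometry of immunoblots, normalized to GAPDH. Lysates from treated cells were prepared in RIPA buffer (pH 7.6) containing protease inhibitors, and equal protein amounts, checked by BCA, were separated on 10% gels and blotted onto PVDF.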

ER, sequence (P03372 whole entry): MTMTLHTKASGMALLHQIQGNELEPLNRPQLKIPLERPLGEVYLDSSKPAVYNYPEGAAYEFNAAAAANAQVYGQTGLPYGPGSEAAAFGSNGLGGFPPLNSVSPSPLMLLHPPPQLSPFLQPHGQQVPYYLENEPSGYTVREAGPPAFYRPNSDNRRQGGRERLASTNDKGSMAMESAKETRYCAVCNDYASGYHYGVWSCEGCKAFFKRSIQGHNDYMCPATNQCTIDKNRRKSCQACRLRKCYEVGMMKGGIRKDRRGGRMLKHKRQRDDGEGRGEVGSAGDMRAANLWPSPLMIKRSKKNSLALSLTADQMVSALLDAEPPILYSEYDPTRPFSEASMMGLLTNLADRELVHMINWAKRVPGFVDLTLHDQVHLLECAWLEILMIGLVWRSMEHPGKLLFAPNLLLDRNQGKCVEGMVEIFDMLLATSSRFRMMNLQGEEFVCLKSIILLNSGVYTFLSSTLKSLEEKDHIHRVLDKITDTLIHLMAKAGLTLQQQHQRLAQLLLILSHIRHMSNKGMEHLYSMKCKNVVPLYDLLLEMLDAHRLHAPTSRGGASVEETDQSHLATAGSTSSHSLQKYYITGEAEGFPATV

SMILES	Traditional Western Degradation Potency
C[C@@H]1Cc2c([nH]c3ccccc23)[C@@H](c2c(F)cc(N3CC(C(=O)N4CC(CN5Cc6cc7c(cc6C5)C(=O)N(C5CCC(=O)NC5=O)C7=O)C4)C3)cc2F)N1CC(F)F (stereo partly drawn) [Compound B203, 6-((1-(1-(4-((1R,3R)-2-(2,2-difluoroethyl)-3-methyl-2,3,4,9-tetrahydro-1H-pyrido[3,4-b]indol-1-yl)-3,5-difluorophenyl)azetidine-3-carbonyl)azetidin-3-yl)methyl)-2-(2,6-dioxopiperidin-3-yl)-6,7-dihydropyrrolo[3,4-f]isoindole-1,3(2H,5H)-dione]	B (“B”: 10-100 nM)
C[C@@H]1Cc2c([nH]c3ccccc23)[C@@H](c2c(F)cc(N3CCC4(CCN(CC5Cc6cc7c(cc6C5)C(=O)N(C5CCC(=O)NC5=O)C7=O)CC4)CC3)cc2F)N1CC(F)(F)F (stereo partly drawn) [Compound B204, 6-((9-(3,5-difluoro-4-((1R,3R)-3-methyl-2-(2,2,2-trifluoroethyl)-2,3,4,9-tetrahydro-1H-pyrido[3,4-b]indol-1-yl)phenyl)-3,9-diazaspiro[5.5]undecan-3-yl)methyl)-2-(2,6-dioxopiperidin-3-yl)-6,7-dihydrocyclopenta[f]isoindole-1,3(2H,5H)-dione]	C (“C”: >100 nM)
C[C@@H]1Cc2c([nH]c3ccccc23)[C@@H](c2c(F)cc(N3CCC4(CC3)CN(CC3Cc5cc6c(cc5C3)C(=O)N(C3CCC(=O)NC3=O)C6=O)C4)cc2F)N1CC(F)F (stereo partly drawn) [Compound B205, 6-((7-(4-((1R,3R)-2-(2,2-difluoroethyl)-3-methyl-2,3,4,9-tetrahydro-1H-pyrido[3,4-b]indol-1-yl)-3,5-difluorophenyl)-2,7-diazaspiro[3.5]nonan-2-yl)methyl)-2-(2,6-dioxopiperidin-3-yl)-6,7-dihydrocyclopenta[f]isoindole-1,3(2H,5H)-dione]	C (“C”: >100 nM)
C[C@@H]1Cc2c([nH]c3ccccc23)[C@@H](c2c(F)cc(N3CCC(C(=O)N4CCC(CN5Cc6cc7c(cc6C5)C(=O)N(C5CCC(=O)NC5=O)C7=O)CC4)CC3)cc2F)N1CC(F)F (stereo partly drawn) [Compound B206, 6-((1-(1-(4-((1R,3R)-2-(2,2-difluoroethyl)-3-methyl-2,3,4,9-tetrahydro-1H-pyrido[3,4-b]indol-1-yl)-3,5-difluorophenyl)piperidine-4-carbonyl)piperidin-4-yl)methyl)-2-(2,6-dioxopiperidin-3-yl)-6,7-dihydropyrrolo[3,4-f]isoindole-1,3(2H,5H)-dione]	C (“C”: >100 nM)
C[C@@H]1Cc2c([nH]c3ccccc23)[C@@H](c2c(F)cc(N3CCC(C(=O)N4CC(CN5Cc6cc7c(cc6C5)C(=O)N(C5CCC(=O)NC5=O)C7=O)C4)CC3)cc2F)N1CC(F)F (stereo partly drawn) [Compound B207, 6-((1-(1-(4-((1R,3R)-2-(2,2-difluoroethyl)-3-methyl-2,3,4,9-tetrahydro-1H-pyrido[3,4-b]indol-1-yl)-3,5-difluorophenyl)piperidine-4-carbonyl)azetidin-3-yl)methyl)-2-(2,6-dioxopiperidin-3-yl)-6,7-dihydropyrrolo[3,4-f]isoindole-1,3(2H,5H)-dione]	B (“B”: 10-100 nM)
C[C@@H]1Cc2c([nH]c3ccccc23)[C@@H](c2c(F)cc(N3CCC(C(=O)N4CC(N5Cc6cc7c(cc6C5)C(=O)N(C5CCC(=O)NC5=O)C7=O)C4)CC3)cc2F)N1CC(F)F (stereo partly drawn) [Compound B208, 6-(1-(1-(4-((1R,3R)-2-(2,2-difluoroethyl)-3-methyl-2,3,4,9-tetrahydro-1H-pyrido[3,4-b]indol-1-yl)-3,5-difluorophenyl)piperidine-4-carbonyl)azetidin-3-yl)-2-(2,6-dioxopiperidin-3-yl)-6,7-dihydropyrrolo[3,4-f]isoindole-1,3(2H,5H)-dione]	C (“C”: >100 nM)
C[C@@H]1Cc2c([nH]c3ccccc23)[C@@H](c2c(F)cc(N3CC(C(=O)N4CCC(N5Cc6cc7c(cc6C5)C(=O)N(C5CCC(=O)NC5=O)C7=O)CC4)C3)cc2F)N1CC(F)F (stereo partly drawn) [Compound B209, 6-(1-(1-(4-((1R,3R)-2-(2,2-difluoroethyl)-3-methyl-2,3,4,9-tetrahydro-1H-pyrido[3,4-b]indol-1-yl)-3,5-difluorophenyl)azetidine-3-carbonyl)piperidin-4-yl)-2-(2,6-dioxopiperidin-3-yl)-6,7-dihydropyrrolo[3,4-f]isoindole-1,3(2H,5H)-dione]	C (“C”: >100 nM)

More lines, now with the values ahead:

Traditional Western Degradation Potency	SMILES
C (“C”: >100 nM)	C[C@@H]1Cc2c([nH]c3ccccc23)[C@@H](c2c(F)cc(N3CC(C(=O)N4CCC(CN5Cc6cc7c(cc6C5)C(=O)N(C5CCC(=O)NC5=O)C7=O)CC4)C3)cc2F)N1CC(F)F (stereo partly drawn) [Compound B210, 6-((1-(1-(4-((1R,3R)-2-(2,2-difluoroethyl)-3-methyl-2,3,4,9-tetrahydro-1H-pyrido[3,4-b]indol-1-yl)-3,5-difluorophenyl)azetidine-3-carbonyl)piperidin-4-yl)methyl)-2-(2,6-dioxopiperidin-3-yl)-6,7-dihydropyrrolo[3,4-f]isoindole-1,3(2H,5H)-dione]
C (“C”: >100 nM)	C[C@@H]1Cc2c([nH]c3ccccc23)[C@@H](c2c(F)cc(N3CCC(CN4CCC(C(=O)N5Cc6cc7c(cc6C5)C(=O)N(C5CCC(=O)NC5=O)C7=O)CC4)CC3)cc2F)N1CC(F)F (stereo partly drawn) [Compound B211, 6-(1-((1-(4-((1R,3R)-2-(2,2-difluoroethyl)-3-methyl-2,3,4,9-tetrahydro-1H-pyrido[3,4-b]indol-1-yl)-3,5-difluorophenyl)piperidin-4-yl)methyl)piperidine-4-carbonyl)-2-(2,6-dioxopiperidin-3-yl)-6,7-dihydropyrrolo[3,4-f]isoindole-1,3(2H,5H)-dione]
C (“C”: >100 nM)	C[C@@H]1Cc2c([nH]c3ccccc23)[C@@H](c2c(F)cc(N3CCC(CN4CC(C(=O)N5Cc6cc7c(cc6C5)C(=O)N(C5CCC(=O)NC5=O)C7=O)C4)CC3)cc2F)N1CC(F)F (stereo partly drawn) [Compound B212, 6-(1-((1-(4-((1R,3R)-2-(2,2-difluoroethyl)-3-methyl-2,3,4,9-tetrahydro-1H-pyrido[3,4-b]indol-1-yl)-3,5-difluorophenyl)piperidin-4-yl)methyl)azetidine-3-carbonyl)-2-(2,6-dioxopiperidin-3-yl)-6,7-dihydropyrrolo[3,4-f]isoindole-1,3(2H,5H)-dione]
A (“A”: <10 nM)	C[C@@H]1Cc2c([nH]c3ccccc23)[C@@H](c2c(F)cc(N3CCC(CN4CCC(N5Cc6cc7c(cc6C5)C(=O)N(C5CCC(=O)NC5=O)C7=O)CC4)CC3)cc2F)N1CC(F)F (stereo partly drawn) [Compound B213, 6-(1-((1-(4-((1R,3R)-2-(2,2-difluoroethyl)-3-methyl-2,3,4,9-tetrahydro-1H-pyrido[3,4-b]indol-1-yl)-3,5-difluorophenyl)piperidin-4-yl)methyl)piperidin-4-yl)-2-(2,6-dioxopiperidin-3-yl)-6,7-dihydropyrrolo[3,4-f]isoindole-1,3(2H,5H)-dione]
A (“A”: <10 nM)	C[C@@H]1Cc2c([nH]c3ccccc23)[C@@H](c2c(F)cc(N3CCC(C(=O)N4CCC(N5Cc6cc7c(cc6C5)C(=O)N(C5CCC(=O)NC5=O)C7=O)CC4)CC3)cc2F)N1CC(C)(F)F (stereo partly drawn) [Compound B214, 6-(1-(1-(4-((1R,3R)-2-(2,2-difluoropropyl)-3-methyl-2,3,4,9-tetrahydro-1H-pyrido[3,4-b]indol-1-yl)-3,5-difluorophenyl)piperidine-4-carbonyl)piperidin-4-yl)-2-(2,6-dioxopiperidin-3-yl)-6,7-dihydropyrrolo[3,4-f]isoindole-1,3(2H,5H)-dione]
A (“A”: <10 nM)	C[C@@H]1Cc2c([nH]c3ccccc23)[C@@H](c2c(F)cc(N3CCC4(CCN(C(=O)CN5Cc6cc7c(cc6C5)C(=O)N(C5CCC(=O)NC5=O)C7=O)CC4)CC3)cc2F)N1CC(C)(F)F (stereo partly drawn) [Compound B215, 6-(2-(9-(4-((1R,3R)-2-(2,2-difluoropropyl)-3-methyl-2,3,4,9-tetrahydro-1H-pyrido[3,4-b]indol-1-yl)-3,5-difluorophenyl)-3,9-diazaspiro[5.5]undecan-3-yl)-2-oxoethyl)-2-(2,6-dioxopiperidin-3-yl)-6,7-dihydropyrrolo[3,4-f]isoindole-1,3(2H,5H)-dione]
A (“A”: <10 nM)	C[C@@H]1Cc2c([nH]c3ccccc23)[C@@H](c2cnc(N3CCC4(CCN(C(=O)CN5Cc6cc7c(cc6C5)C(=O)N(C5CCC(=O)NC5=O)C7=O)CC4)CC3)nc2)N1CC(F)(F)F (stereo partly drawn) [Compound B216, 2-(2,6-dioxopiperidin-3-yl)-6-(2-(9-(5-((1R,3R)-3-methyl-2-(2,2,2-trifluoroethyl)-2,3,4,9-tetrahydro-1H-pyrido[3,4-b]indol-1-yl)pyrimidin-2-yl)-3,9-diazaspiro[5.5]undecan-3-yl)-2-oxoethyl)-6,7-dihydropyrrolo[3,4-f]isoindole-1,3(2H,5H)-dione]
A (“A”: <10 nM)	C[C@@H]1Cc2c([nH]c3ccccc23)[C@@H](c2cnc(N3CCC4(CC3)CN(C(=O)CN3Cc5cc6c(cc5C3)C(=O)N(C3CCC(=O)NC3=O)C6=O)C4)nc2)N1CC(F)(F)F (stereo partly drawn) [Compound B217, 2-(2,6-dioxopiperidin-3-yl)-6-(2-(7-(5-((1R,3R)-3-methyl-2-(2,2,2-trifluoroethyl)-2,3,4,9-tetrahydro-1H-pyrido[3,4-b]indol-1-yl)pyrimidin-2-yl)-2,7-diazaspiro[3.5]nonan-2-yl)-2-oxoethyl)-6,7-dihydropyrrolo[3,4-f]isoindole-1,3(2H,5H)-dione]
B (“B”: 10-100 nM)	C[C@@H]1Cc2c([nH]c3ccccc23)[C@@H](c2cnc(N3CCC(CN4CCC(N5Cc6cc7c(cc6C5)C(=O)N(C5CCC(=O)NC5=O)C7=O)CC4)CC3)nc2)N1CC(F)(F)F (stereo partly drawn) [Compound B218, 2-(2,6-dioxopiperidin-3-yl)-6-(1-((1-(5-((1R,3R)-3-methyl-2-(2,2,2-trifluoroethyl)-2,3,4,9-tetrahydro-1H-pyrido[3,4-b]indol-1-yl)pyrimidin-2-yl)piperidin-4-yl)methyl)piperidin-4-yl)-6,7-dihydropyrrolo[3,4-f]isoindole-1,3(2H,5H)-dione]
